30 compounds from patent US8481732B2 (Incyte Corporation, priority 2009, dated 2013) can be followed below.

The structures appear in SMILES notation.

For the assay, the target named is T1, histamine H4 receptor (Homo sapiens, UniProt Q9H3N8).
T1 construct: expressed in transfected cells; host or cells: HEK293SFM cells (membrane preparation)
T1 sequence (Q9H3N8 whole entry): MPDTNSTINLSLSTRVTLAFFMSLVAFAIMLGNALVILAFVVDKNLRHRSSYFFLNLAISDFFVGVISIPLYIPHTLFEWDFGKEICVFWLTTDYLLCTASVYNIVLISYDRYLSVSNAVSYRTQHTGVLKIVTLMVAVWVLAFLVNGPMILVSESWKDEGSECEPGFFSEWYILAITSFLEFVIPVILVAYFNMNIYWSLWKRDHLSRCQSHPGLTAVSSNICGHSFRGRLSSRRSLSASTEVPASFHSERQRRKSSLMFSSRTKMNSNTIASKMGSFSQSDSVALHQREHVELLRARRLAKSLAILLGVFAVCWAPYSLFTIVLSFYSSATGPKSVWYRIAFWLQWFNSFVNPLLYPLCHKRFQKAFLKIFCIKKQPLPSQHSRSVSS
Kind of assay: H4 Membrane Binding Assay (3H-Histamine displacement). The conditions noted are these: membranes of recombinant HEK293SFM cells, 10 nM 3H-Histamine, 1.5 hr at room temperature. The gist of the method: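 Membranes from HEK293SFM cells expressing human H4 (also human H1–H3, mouse H4), prepared in ice-cold 50 mM Tris-HCl pH 7.5. [3H]-histamine displacement, nonspecific binding defined with 1000× unlabeled ligand. Bound radioactivity separated on PEI-treated GF/B filters and measured by liquid scintillation counting.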
In general, IC50 refers to the point on the concentration scale where inhibition reaches its midpoint. In the case of `CN1CCN(c2cc(-c3ccc4c(c3)CN(C(=O)OC3CCN(S(=O)(=O)C5CCCC5)CC3)CC4)nc(N)n2)CC1` [Example 89, 1-(Cyclopentylsulfonyl)piperidin-4-yl 7-[2-amino-6-(4-methylpiperazin-1-yl)pyrimidin-4-yl]-3,4-dihydroisoquinoline-2(1H)-carboxylate], the IC50 amounted to 77 nM.

Regarding `CN1CCN(c2cc(-c3ccc4c(c3)CN(c3ccc(-c5ccc(C#N)cc5)cn3)CC4)nc(N)n2)CC1` [Example 18, 4-{6-[7-[2-Amino-6-(4-methylpiperazin-1-yl)pyrimidin-4-yl]-3,4-dihydroisoquinolin-2(1H)-yl]pyridin-3-yl}benzonitrile], the IC50 is 34 nM.

With `CC(NC(=O)N1CCc2ccc(-c3cc(N4CCN(C)CC4)nc(N)n3)cc2C1)c1ccccc1` (stereo not drawn) [Example 51, 7-[2-Amino-6-(4-methylpiperazin-1-yl)pyrimidin-4-yl]-N-(1-phenylethyl)-3,4-dihydroisoquinoline-2(1H)-carboxamide], the IC50 was 63 nM.

Consider `CN1CCN(c2nc(N)nc3cc(C(=O)N[C@@H](Cc4ccc(-c5ccccc5)cc4)C(=O)N(C)C)ccc23)CC1` [Example 139, 2-Amino-N-[(1S)-1-(biphenyl-4-ylmethyl)-2-(dimethylamino)-2-oxoethyl]-4-(4-methylpiperazin-1-yl)quinazoline-7-carboxamide], for which the IC50 is 25 nM.

For the compound `CC(Cc1cc2ccccc2o1)NC(=O)c1ccc2c(N3CCN(C)CC3)nc(N)nc2c1` (stereo not drawn) [Example 141, 2-Amino-N-[2-(1-benzofuran-2-yl)-1-methylethyl]-4-(4-methylpiperazin-1-yl)quinazoline-7-carboxamide], the IC50 was found to be 71 nM.

Turning to `CC(C)Oc1ccc(C[C@H](NC(=O)c2ccc3c(N4CCN(C)CC4)nc(N)nc3c2)C(=O)N(C)C)cc1` [Example 136, (S)-2-amino-N-(1-(dimethylamino)-3-(4-isopropoxyphenyl)-1-oxopropan-2-yl)-4-(4-methylpiperazin-1-yl)quinazoline-7-carboxamide], the concentration for half-maximal inhibition (IC50) was determined as 59 nM.

With `CCOC(=O)N1CCC(NC(=O)N2CCc3ccc(-c4cc(N5CCN(C)CC5)nc(N)n4)cc3C2)CC1` [Example 52, Ethyl 4-({[7-[2-amino-6-(4-methylpiperazin-1-yl)pyrimidin-4-yl]-3,4-dihydroisoquinolin-2(1H)-yl]carbonyl}amino)piperidine-1-carboxylate], the IC50 turned out to be 130 nM.

Take `CC(C)NC(=O)N1CCc2ccc(-c3cc(N4CCN(C)CC4)nc(N)n3)cc2C1` [Example 13, 7-[2-Amino-6-(4-methylpiperazin-1-yl)pyrimidin-4-yl]-N-isopropyl-3,4-dihydroisoquinoline-2(1H)-carboxamide]: the IC50 amounted to 57.2 nM.

`CN1CCN(c2cc(-c3ccc4c(c3)CN(C(=O)COc3cccc(Cl)c3)CC4)nc(N)n2)CC1` [Example 66, 4-{2-[(3-Chlorophenoxy)acetyl]-1,2,3,4-tetrahydroisoquinolin-7-yl}-6-(4-methylpiperazin-1-yl)pyrimidin-2-amine]: the IC50 amounted to 44 nM.

For `CN1CCN(c2cc(-c3ccc4c(c3)CN(C(=O)N(C)C3CCCCC3)CC4)nc(N)n2)CC1` [Example 81, 7-[2-Amino-6-(4-methylpiperazin-1-yl)pyrimidin-4-yl]-N-cyclohexyl-N-methyl-3,4-dihydroisoquinoline-2(1H)-carboxamide], the IC50 came out at 163 nM.

`CN1CCN(c2nc(N)nc3cc(C(=O)NC(Cc4ccc(C(F)(F)F)cc4)C(=O)N(C)C)ccc23)CC1` (stereo not drawn) [Example 150, 2-Amino-N-{2-(dimethylamino)-2-oxo-1-[4-(trifluoromethyl)benzyl]ethyl}-4-(4-methylpiperazin-1-yl)quinazoline-7-carboxamide]: the IC50 was determined as 44 nM.

For `CC(C)COC(=O)N1CCc2ccc(-c3cc(N4CCN(C)CC4)nc(N)n3)cc2C1` [Example 10, Isobutyl 7-[2-amino-6-(4-methylpiperazin-1-yl)pyrimidin-4-yl]-3,4-dihydroisoquinoline-2(1H)-carboxylate], the IC50 came to 53.4 nM.

`CN1CCN(c2cc(-c3cc4c(cc3F)CCN(C(=O)Nc3ccc(Cl)cc3)C4)nc(N)n2)CC1` [Example 75, 7-[2-Amino-6-(4-methylpiperazin-1-yl)pyrimidin-4-yl]-N-(4-chlorophenyl)-6-fluoro-3,4-dihydroisoquinoline-2(1H)-carboxamide]: the IC50 was 44 nM.

On to `CC(C)OC(=O)N1CCC(CC(=O)N2CCc3ccc(-c4cc(N5CCN(C)CC5)nc(N)n4)cc3C2)CC1` [Example 71, Isopropyl 4-{2-[7-[2-amino-6-(4-methylpiperazin-1-yl)pyrimidin-4-yl]-3,4-dihydroisoquinolin-2(1H)-yl]-2-oxoethyl}piperidine-1-carboxylate], for which the IC50 was 66 nM.

Consider `CN1CCN(c2nc(N)nc3cc(C(=O)NCc4cccc(OCc5cccc6nsnc56)c4)ccc23)CC1` [Example 195, 2-Amino-N-[3-(2,1,3-benzothiadiazol-4-ylmethoxy)benzyl]-4-(4-methylpiperazin-1-yl)quinazoline-7-carboxamide], for which the IC50 is 3.4 nM.

With `C[C@@H](NC(=O)c1ccc2c(N3CCN(C)CC3)nc(N)nc2c1)c1ccc2ccccc2c1` [Example 21, (R)-2-Amino-4-(4-methylpiperazin-1-yl)-N-[1-(naphthalen-2-yl)ethyl]quinazoline-7-carboxamide], the IC50 was found to be 105 nM.

Take `COC(=O)N1CCC(OC(=O)N2CCc3ccc(-c4cc(N5CCN(C)CC5)nc(N)n4)cc3C2)CC1` [Example 115, 1-(Methoxycarbonyl)piperidin-4-yl 7-[2-amino-6-(4-methylpiperazin-1-yl)pyrimidin-4-yl]-3,4-dihydroisoquinoline-2(1H)-carboxylate]: the half-maximal inhibitory concentration (IC50) was found to be 33 nM.

`CC(C)CC(=O)N1CCc2ccc(-c3cc(N4CCN(C)CC4)nc(N)n3)cc2C1` [Example 100, 4-[2-(3-Methylbutanoyl)-1,2,3,4-tetrahydroisoquinolin-7-yl]-6-(4-methylpiperazin-1-yl)pyrimidin-2-amine]: the IC50 was 45 nM.

Take `COc1ccc(Oc2cccc(CC(NC(=O)c3ccc4c(N5CCN(C)CC5)nc(N)nc4c3)C(=O)N(C)C)c2)cc1` (stereo not drawn) [Example 166, 2-Amino-N-{2-(dimethylamino)-1-[3-(4-methoxyphenoxy)benzyl]-2-oxoethyl}-4-(4-methylpiperazin-1-yl)quinazoline-7-carboxamide]: the IC50 was 31 nM.

As to `COC(=O)c1ccc(Oc2cccc(CNC(=O)c3ccc4c(N5CCN(C)CC5)nc(N)nc4c3)c2)cc1` [Example 179, Methyl 4-{3-[({[2-amino-4-(4-methylpiperazin-1-yl)quinazolin-7-yl]carbonyl}amino)methyl]phenoxy}benzoate], the IC50 is 46 nM.

With `CN1CCN(c2cc(-c3ccc4c(c3)CN(C(=O)c3cccc(Cl)c3)CC4)nc(N)n2)CC1` [Example 39, 4-[2-(3-Chlorobenzoyl)-1,2,3,4-tetrahydroisoquinolin-7-yl]-6-(4-methylpiperazin-1-yl)pyrimidin-2-amine], the IC50 turned out to be 186 nM.

Regarding `CN1CCN(c2cc(-c3ccc4c(c3)CN(C(=O)N[C@@H]3CCCC[C@@H]3OCC3CC3)CC4)nc(N)n2)CC1` (relative stereo) [Example 86], the IC50 was found to be 49 nM.

As for `CNC(=O)c1ccc(-c2ccc(N3CCc4ccc(-c5cc(N6CCN(C)CC6)nc(N)n5)cc4C3)nc2)cc1` [Example 19, 4-{6-[7-[2-Amino-6-(4-methylpiperazin-1-yl)pyrimidin-4-yl]-3,4-dihydroisoquinolin-2(1H)-yl]pyridin-3-yl}-N-methylbenzamide], the IC50 stood at 508 nM.

Regarding `CN1CCN(c2cc(-c3ccc4c(c3)CN(C(=O)CC(C#N)c3ccccc3)CC4)nc(N)n2)CC1` (stereo not drawn) [Example 124, 4-[7-[2-Amino-6-(4-methylpiperazin-1-yl)pyrimidin-4-yl]-3,4-dihydroisoquinolin-2(1H)-yl]-4-oxo-2-phenylbutanenitrile], the IC50 is 36 nM.

For the compound `CN1CCN(c2nc(N)nc3cc(C(=O)N[C@@H](Cc4ccc(-c5nc(C(F)(F)F)ccc5C#N)cc4)C(=O)N(C)C)ccc23)CC1` [Example 157, 2-Amino-N-[(1S)-1-{4-[3-cyano-6-(trifluoromethyl)pyridin-2-yl]benzyl}-2-(dimethylamino)-2-oxoethyl]-4-(4-methylpiperazin-1-yl)quinazoline-7-carboxamide], the IC50 came out at 22 nM.

In the case of `CC(NC(=O)N1CCc2ccc(-c3cc(N4CCN(C)CC4)nc(N)n3)cc2C1)c1cccnc1` (stereo not drawn) [Example 126, 7-[2-Amino-6-(4-methylpiperazin-1-yl)pyrimidin-4-yl]-N-(1-pyridin-3-ylethyl)-3,4-dihydroisoquinoline-2(1H)-carboxamide], the IC50 turned out to be 569 nM.

Regarding `CN1CCN(c2cc(-c3ccc4c(c3)CN(C(=O)Nc3cccc(Cl)c3)CC4)nc(N)n2)CC1` [Example 20, 7-[2-Amino-6-(4-methylpiperazin-1-yl)pyrimidin-4-yl]-N-(3-chlorophenyl)-3,4-dihydroisoquinoline-2(1H)-carboxamide], the IC50 came to 19.6 nM.

Take `COC(=O)[C@H](Cc1ccc(OC(C)C)cc1)NC(=O)c1ccc2c(N3CCN(C)CC3)nc(N)nc2c1` [Example 134, Methyl (2S)-2-({[2-amino-4-(4-methylpiperazin-1-yl)quinazolin-7-yl]carbonyl}amino)-3-(4-isopropoxyphenyl)propanoate]: the IC50 stood at 29 nM.

For `CC(Oc1cccc(CNC(=O)c2ccc3c(N4CCN(C)CC4)nc(N)nc3c2)c1)c1cccc(C(F)(F)F)c1` (stereo not drawn) [Example 196, 2-Amino-4-(4-methylpiperazin-1-yl)-N-(3-{1-[3-(trifluoromethyl)phenyl]ethoxy}benzyl)quinazoline-7-carboxamide], the IC50 was 4.4 nM.

In the case of `COC(=O)c1cccc(-c2ccc(C[C@H](NC(=O)c3ccc4c(N5CCN(C)CC5)nc(N)nc4c3)C(=O)N(C)C)cc2)c1` [Example 158, Methyl 4′-[(2S)-2-({[2-amino-4-(4-methylpiperazin-1-yl)quinazolin-7-yl]carbonyl}amino)-3-(dimethylamino)-3-oxopropyl]biphenyl-3-carboxylate], the IC50 was 6.6 nM.
